The values that follow come from publication PMC9982066, “Inhibition of Ehrlichia chaffeensis infection by cell-permeable macrocyclic peptides that bind type IV secretion effector Etf-1” (PNAS Nexus, 2023).

Starred links: 1 amine or outer side, 2 acyl side, 3 side chain; linkers in the order of their positions; H or OH if unused. Positions of bridges follow the written chain, without caps; N, C: chain ends. Non-standard residues stand in square brackets, D forms with d. Residues, ends and D or L forms follow the SMILES beside them. Trimesoyl = O=C(c1cc(C(=O)[*:2])cc(C(=O)[*:3])c1)[*:1]; Phe(3-Cl) = N[C@@H](Cc1cccc(Cl)c1)C(=O)O; Phe(4-Cl) = N[C@@H](Cc1ccc(Cl)cc1)C(=O)O; Phe(4-F) = N[C@@H](Cc1ccc(F)cc1)C(=O)O; d2Nal = N[C@H](Cc1ccc2ccccc2c1)C(=O)O; βAsp = O=C(O)[C@H](CC(=O)[*:2])N[*:1]; Nle = CCCC[C@H](N)C(=O)O; Orn = NCCC[C@H](N)C(=O)O; Dap = NC[C@H](N)C(=O)O

One test addresses Etf-1 (Ehrlichia chaffeensis, UniProt Q2GG12). Put plainly: FP assay of Etf-1 binding with FAM-labeled peptides. As to the method:
The peptides were labeled at their C-terminus with carboxyfluorescein (FAM) through a β-Ala-β-Ala-Lys linker and evaluated for binding to Etf-1 by using a fluorescence polarization (FP) assay. […] This outcome is not unexpected, as screening OBOC libraries is often complicated by false positives, due to the presence of high ligand densities on library beads ([28]).
Fig. 2. Determination of binding affinity of Etf-1-binding peptides by FP assay. […] FAM-labeled peptide (50 nM) was incubated with serially diluted Etf-1 (starting from 25–30 μM in PBS, pH 7.4, supplemented with 5 mM DTT and 0.01% Triton X-100) for 1 h at RT. FP values were measured on a Tecan Infinite M1000 Pro plate reader. Titration curves (n ≥ 3) were fitted using GraphPad Prism and analyzed with TraceDrawer to calculate dissociation constants (KD). […] Data were analyzed using GraphPad Prism and fitted to a four-parameter variable slope equation to determine IC50 values.
Etf-1 and macrocyclic peptides were serially diluted in PBS supplemented with 5 mM DTT and 0.01% Triton X-100 (v/v). FAM-labeled peptides (50 nM) were prepared from a 10-μM DMSO stock and incubated with serially diluted Etf-1 for 1 h at room temperature (RT). Twenty microliters of the solutions were transferred to a black 384-well plate (Greiner Bio-One) and FP values were measured on a Tecan Infinite M1000 Pro plate reader with excitation and emission wavelengths at 470 and 535 nm, respectively. Titration curves (n ≥ 3) were fitted using GraphPad Prism v8.0 (GraphPad, La Jolla, CA, USA), and analyzed with TraceDrawer software v1.8 (Ridgeview Instruments AB, Uppsala, Sweden) to calculate the dissociation constant (KD, in nM).

Test [1] has as its system E. chaffeensis. Nature of the test: morphological examination of E. chaffeensis infection of THP-1 cells by Diff-Quik staining. To be noted: THP-1 cells, Fig. S4 (with Figs. 5, S3). As to the method: Ehrlichia chaffeensis Arkansas strain ([43]) was cultured in THP-1 cells (ATCC, Manassas, VA, USA) in RPMI 1640 medium (Corning, Manassas, VA, USA) supplemented with 8% FBS (Atlanta Biologicals, Flowery Branch, GA, USA) and 4 mM L-glutamine (at 37°C under 5% CO2 in a humidified atmosphere. THP-1 cells were seeded at 1 × 10^5 cells/well (in 1.5-mL RPMI 1640 culture medium with 8% FBS, 4 mM L-Gln) in a 12-well plate, then infected with host cell-free E. chaffeensis at an MOI (multiplicity of infection, or numbers of bacteria per cell) of ∼30. Cells were cultured in a humidified incubator with 5% CO2 and 95% air. No antibiotic was used throughout the study. At 0.5 h post infection (pi), cells were incubated with 1–10 μM of peptides or with an equal volume of DMSO (solvent control, 2 μL per mL medium). At 2 days pi, cells were washed with 1 mL of PBS, and two drops of cells were cytospun onto glass slides by a Shandon Cytospin 4 cytocentrifuge (Thermo Fisher Scientific), then fixed and stained with HEMA 3 staining solutions (Thermo Fisher Scientific). Ehrlichia infection was observed and images were captured by a SPOT RT digital camera (Diagnostic Instruments, Sterling Heights, MI, USA) coupled to a Nikon Eclipse E400 microscope (Nikon, Melville, NY, USA).

The test system of test [2] is E. chaffeensis. Nature of the test: E. chaffeensis infection of THP-1 cells, qPCR of 16S rRNA gene normalized to human actin. Type of test: cell-based, Ehrlichia chaffeensis. As to the method: Therefore, we investigated whether these Etf-1-binding peptides can prevent the proliferation of E. chaffeensis inside host cells. THP-1 cells were infected with E. chaffeensis, then treated with the peptides at 30 min post infection (pi) for 2 days. Intracellular infection and proliferation of E. chaffeensis inside host THP-1 cells were assessed using quantitative PCR (qPCR) analysis based on E. chaffeensis 16S rRNA gene normalized by human actin (ACT) gene.
Fig. 5. Effects of Etf-1-binding peptides on E. chaffeensis infection of THP-1 cells. Ehrlichia chaffeensis-infected THP-1 cells at […] were incubated with 10 μM of Etf-1-binding macrocyclic peptide or DMSO control for 2 days.
No antibiotic was used throughout the study.
DNA was extracted from each sample using Qiagen blood mini kit according to the manufacturer's instructions (Qiagen, Valencia, CA, USA), and qPCR analysis was performed in an MX3000P qPCR instrument (Stratagene, San Diego, CA, USA) using SYBR Green Real-Time PCR Master Mix (Thermo Fisher Scientific) according to the manufacturer's instructions. Five-fold serial dilutions of the control group were used to generate a standard curve to calculate the relative copy numbers of E. chaffeensis 16S rRNA normalized against human actin genes using the MX3000P software from Stratagene as described previously ([18], [44]).
Background: In qPCR the cycle at which signal appears reflects the starting amount.

Chain of Etf-1 (Q2GG12 entry or part of it): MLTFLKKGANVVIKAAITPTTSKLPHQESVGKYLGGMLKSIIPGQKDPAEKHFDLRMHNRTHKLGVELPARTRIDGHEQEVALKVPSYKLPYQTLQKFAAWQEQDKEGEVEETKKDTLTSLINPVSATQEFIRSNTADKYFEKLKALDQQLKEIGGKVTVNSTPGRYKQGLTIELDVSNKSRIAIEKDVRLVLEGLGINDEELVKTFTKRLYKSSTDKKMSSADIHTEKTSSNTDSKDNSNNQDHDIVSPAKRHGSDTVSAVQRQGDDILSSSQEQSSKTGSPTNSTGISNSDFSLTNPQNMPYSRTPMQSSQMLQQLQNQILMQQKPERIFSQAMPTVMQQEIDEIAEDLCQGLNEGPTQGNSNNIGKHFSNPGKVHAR

What is called Kd is the equilibrium constant for the complex coming apart. Take `CC(C)C[C@H]1NC(=O)[C@H](CO)NC(=O)[C@@H](C)NC(=O)[C@H](CCC(N)=O)NC(=O)[C@H](Cc2c[nH]cn2)NC(=O)[C@H](Cc2ccc(O)cc2)NC(=O)c2cc3cc(c2)C(=O)NC[C@H](NC1=O)C(=O)N[C@@H](Cc1ccccc1)C(=O)N[C@H](Cc1ccc2ccccc2c1)C(=O)N[C@H](CCCNC(=N)N)C(=O)N[C@@H](CCCNC(=N)N)C(=O)N[C@H](CCCNC(=N)N)C(=O)N[C@@H](CCCNC(=N)N)C(=O)N[C@H](C(N)=O)CNC3=O` [Peptide B7-3, TMA-Tyr-His-Gln-ala-Ser-leu-Dap-Phe-nal-arg-Arg-arg-Arg-Dap] (YHQ[dA]S[dL][Dap]F[d2Nal][dR]R[dR]R[Dap]-NH2; linker N-7-14 via Trimesoyl): the Kd at Etf-1 is 5.8 ± 0.5 µM.

`CC(C)C[C@H]1NC(=O)[C@H](CO)NC(=O)[C@H]2CCCN2C(=O)[C@H](CCC(N)=O)NC(=O)[C@H](Cc2c[nH]cn2)NC(=O)[C@H](Cc2ccc(O)cc2)NC(=O)c2cc3cc(c2)C(=O)NC[C@H](NC1=O)C(=O)N[C@@H](Cc1ccccc1)C(=O)N[C@H](Cc1ccc2ccccc2c1)C(=O)N[C@H](C)C(=O)N[C@@H](CCCNC(=N)N)C(=O)N[C@H](CCCNC(=N)N)C(=O)N[C@@H](CCCNC(=N)N)C(=O)N[C@H](C(N)=O)CNC3=O` [Peptide B7-9, TMA-Tyr-His-Gln-pro-Ser-leu-Dap-Phe-nal-ala-Arg-arg-Arg-Dap] (YHQ[dP]S[dL][Dap]F[d2Nal][dA]R[dR]R[Dap]-NH2; linker N-7-14 via Trimesoyl) displayed a dissociation constant (Kd) at Etf-1 of 30 ± 7 µM. The same measure, in the same setting: then `CC(C)C[C@H]1NC(=O)[C@H](CO)NC(=O)[C@H]2CCCN2C(=O)[C@H](CCC(N)=O)NC(=O)[C@H](Cc2c[nH]cn2)NC(=O)[C@H](Cc2ccc(O)cc2)NC(=O)c2cc3cc(c2)C(=O)NC[C@H](NC1=O)C(=O)N[C@@H](Cc1ccccc1)C(=O)N[C@H](Cc1ccc2ccccc2c1)C(=O)N[C@H](CCCNC(=N)N)C(=O)N[C@@H](C)C(=O)N[C@H](CCCNC(=N)N)C(=O)N[C@@H](CCCNC(=N)N)C(=O)N[C@H](C(N)=O)CNC3=O` [Peptide B7-10, TMA-Tyr-His-Gln-pro-Ser-leu-Dap-Phe-nal-arg-Ala-arg-Arg-Dap] (YHQ[dP]S[dL][Dap]F[d2Nal][dR]A[dR]R[Dap]-NH2; linker N-7-14 via Trimesoyl), with 30 ± 3 µM. As to `CCCC[C@@H]1NC(=O)[C@H](CC(=O)O)NC(=O)[C@@H](Cc2ccccc2)NC(=O)[C@H](Cc2ccc(O)cc2)NC(=O)c2cc3cc(c2)C(=O)NC[C@H](NC(=O)[C@@H](CC(C)C)NC(=O)[C@@H](CC(N)=O)NC1=O)C(=O)N[C@@H](Cc1ccc(Cl)cc1)C(=O)N[C@H](Cc1ccc2ccccc2c1)C(=O)N[C@H](CCCNC(=N)N)C(=O)N[C@@H](CCCNC(=N)N)C(=O)N[C@H](CCCNC(=N)N)C(=O)N[C@@H](CCCNC(=N)N)C(=O)N[C@H](C(N)=O)CNC3=O` [Peptide B7-133-3, TMA-Tyr-phe-Asp-Nle-asn-leu-Dap-4-ClPhe-nal-arg-Arg-arg-Arg-Dap] (Y[dF]D[Nle][dN][dL][Dap][Phe(4-Cl)][d2Nal][dR]R[dR]R[Dap]-NH2; linker N-7-14 via Trimesoyl), the “E. chaffeensis infection (numbers and sizes of morulae)” value with E. chaffeensis [1] is recorded as “significantly inhibited”. The “inhibition of E. chaffeensis infection” value in the test with E. chaffeensis [2] (10 μM, 2 days, vs DMSO control) was “significantly inhibited”. For the same molecule, the “dose dependence of inhibition of E. chaffeensis infection” value in the test on E. chaffeensis [2] (1, 5, and 10 μM) was “dose-dependent manner”. Further, in the test with E. chaffeensis [2] (THP-1 cells), the “inhibition of E. chaffeensis infection compared with peptide B7 (or B7-16)” value is reported as “significantly more potent inhibition”.

`CC(C)C[C@H]1NC(=O)[C@H](CO)NC(=O)[C@H]2CCCN2C(=O)[C@H](CCC(N)=O)NC(=O)[C@H](Cc2c[nH]cn2)NC(=O)[C@H](Cc2ccc(O)cc2)NC(=O)c2cc3cc(c2)C(=O)NC[C@H](NC1=O)C(=O)N[C@@H](Cc1cccc(Cl)c1)C(=O)N[C@H](Cc1ccc2ccccc2c1)C(=O)N[C@H](CCCNC(=N)N)C(=O)N[C@@H](CCCNC(=N)N)C(=O)N[C@H](CCCNC(=N)N)C(=O)N[C@@H](CCCNC(=N)N)C(=O)N[C@H](C(N)=O)CNC3=O` [Peptide B7-17, TMA-Tyr-His-Gln-pro-Ser-leu-Dap-3-ClPhe-nal-arg-Arg-arg-Arg-Dap] (YHQ[dP]S[dL][Dap][Phe(3-Cl)][d2Nal][dR]R[dR]R[Dap]-NH2; linker N-7-14 via Trimesoyl) had an equilibrium dissociation constant (Kd) on Etf-1 of 3.4 ± 0.4 µM. The same measure, in the same setting: then `CCCC[C@@H]1NC(=O)[C@H](Cc2ccc(O)cc2)NC(=O)c2cc3cc(c2)C(=O)NC[C@H](NC(=O)[C@@H](CC(C)C)NC(=O)CNC(=O)[C@H](CCC(N)=O)NC(=O)[C@@H](CCC(=O)O)NC1=O)C(=O)N[C@@H](Cc1ccc(Cl)cc1)C(=O)N[C@H](Cc1ccc2ccccc2c1)C(=O)N[C@H](CCCNC(=N)N)C(=O)N[C@@H](CCCNC(=N)N)C(=O)N[C@H](CCCNC(=N)N)C(=O)N[C@@H](CCCNC(=N)N)C(=O)N[C@H](C(N)=O)CNC3=O` [Peptide B7-133-4, TMA-Tyr-Nle-glu-Gln-Gly-leu-Dap-4-ClPhe-nal-arg-Arg-arg-Arg-Dap] (Y[Nle][dE]QG[dL][Dap][Phe(4-Cl)][d2Nal][dR]R[dR]R[Dap]-NH2; linker N-7-14 via Trimesoyl), with 6.5 ± 0.1 µM. The same measure, in the same setting: the result for `CC(C)C[C@H]1NC(=O)[C@H](Cc2ccc(F)cc2)NC(=O)[C@@H](CCC(=O)O)NC(=O)C[C@@H](C(=O)O)NC(=O)[C@H](CCCN)NC(=O)[C@H](CC(=O)O)NC(=O)[C@H](Cc2ccc(O)cc2)NC(=O)c2cc3cc(c2)C(=O)NC[C@H](NC1=O)C(=O)N[C@@H](Cc1ccc(Cl)cc1)C(=O)N[C@H](Cc1ccc2ccccc2c1)C(=O)N[C@H](CCCNC(=N)N)C(=O)N[C@@H](CCCNC(=N)N)C(=O)N[C@H](CCCNC(=N)N)C(=O)N[C@@H](CCCNC(=N)N)C(=O)N[C@H](C(N)=O)CNC3=O` [Peptide B7-95-1, TMA-Tyr-Asp-Orn-isoAsp-glu-Fpa-leu-Dap-4-ClPhe-nal-arg-Arg-arg-Arg-Dap] (YD[Orn][βAsp][dE][Phe(4-F)][dL][Dap][Phe(4-Cl)][d2Nal][dR]R[dR]R[Dap]-NH2; linker N-8-15 via Trimesoyl) reads 3.2 µM.
